Test results from ChEMBL document CHEMBL1944628, “Bioanalytical Screening of Riboflavin Antagonists for Targeted Drug Delivery - A Thermodynamic and Kinetic Study” (ACS Med Chem Lett, 2011).

What was measured:
[1] = molecular target: T1, Riboflavin-binding protein (Gallus gallus, UniProt P02752); assay: Binding affinity to chicken riboflavin binding protein assessed as dissociation constant at pH 7.4 in phosphate buffer by isothermal titration calorimetric assay
T1 sequence (P02752 whole entry): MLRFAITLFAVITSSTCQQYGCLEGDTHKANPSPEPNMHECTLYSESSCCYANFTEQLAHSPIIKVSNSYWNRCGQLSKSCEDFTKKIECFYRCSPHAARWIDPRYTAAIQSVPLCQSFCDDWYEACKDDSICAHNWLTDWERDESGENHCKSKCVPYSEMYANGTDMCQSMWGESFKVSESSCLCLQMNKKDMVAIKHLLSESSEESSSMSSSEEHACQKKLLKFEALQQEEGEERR

[2] = molecular target: T1, Riboflavin-binding protein; assay: Binding affinity to chicken riboflavin binding protein assessed as dissociation constant at pH 7.4 in 0.1 M phosphate buffer by isothermal titration calorimetric assay
[3] = molecular target: T1, Riboflavin-binding protein; assay: Binding affinity to chicken riboflavin binding protein assessed as dissociation constant at pH 4 in 0.1 M NaAc by isothermal titration calorimetric assay
[4] = molecular target: T1, Riboflavin-binding protein; assay: Binding affinity to chicken riboflavin binding protein assessed as dissociation constant at pH 9 in 0.1 M Tris by isothermal titration calorimetric assay
[5] = molecular target: T1, Riboflavin-binding protein; assay: Competitive inhibition of chicken riboflavin binding protein by surface plasmon resonance assay
[6] = molecular target: T1, Riboflavin-binding protein; assay: Binding affinity to chicken riboflavin binding protein by surface plasmon resonance assay
[7] = molecular target: T2, Riboflavin-binding protein (Gallus gallus) (UniProt P02752); assay: Competitive inhibition of chicken riboflavin binding protein binding to immobilized ligand by surface plasmon resonance assay
T2 sequence (whole entry): T1 sequence (P02752 whole entry)

[8] = molecular target: T2, Riboflavin-binding protein (Gallus gallus); assay: Competitive inhibition of chicken riboflavin binding protein binding to immobilized ligand at 500 uM by surface plasmon resonance assay

Structure (SMILES)	Kd [1]	Kd [2]	Kd [3]	Kd [4]	Ki [5]	Kd [6]	inhibition [7]	inhibition [8]
Cc1cc2nc3c(=O)[nH]c(=O)nc-3n(C[C@H](O)[C@H](O)[C@H](O)CO)c2cc1C [RIBOFLAVIN]	0.005 µM	0.0066 µM	0.046 µM	0.034 µM	0.35 µM			
Cc1cc2nc3c(=O)n(CC(=O)NCCCN)c(=O)nc-3n(C[C@H](O)[C@H](O)[C@H](O)CO)c2cc1C						35.5 µM	Dose-dependent effect	90%
Cc1cc2nc3c(=O)[nH]c(=O)nc-3n(C)c2cc1C [LUMIFLAVIN]	0.061 µM							
